Like-named read-outs stand apart in the source and are kept apart here.
Legend:
Format in all cases: biochemical
[1] = biological target: CDK2/CycA2 (Homo sapiens, UniProt P24941); assay: ADP-Glo kinase assay on CDK enzymatic activity, CDK2/CycA2; settings: 10 concentrations from 10 μM, 4-fold, 60 min room temperature
Excerpt: (§1) Test samples: the compounds of the present invention, having structures shown above.
(§2) ADP-Glo Kinase Assay (ADP-Glo kinase kit), DMSO (dimethyl sulfoxide), CDK9/CycT1 (cyclin-dependent kinase 9/cyclin T1), CDK tide (cyclin-dependent kinase substrate peptide fragments), CDK1/CycE1 (cyclin-dependent kinase 1/cyclin E1), CDK2/CycA2 (cyclin-dependent kinase 2/cyclin A2), CDK3/CycE1 (cyclin-dependent kinase 3/cyclin E1), CDK4/CycD3 (cyclin-dependent kinase 4/cyclin D3), CDK5/p25NCK (cyclin-dependent kinase 5/p25), and AZD 4573.
(§3) A 384-well white plate, a 96-well plate, a microplate oscillator, a centrifuge, and a microplate reader.
(§4) The compounds were dissolved in DMSO and diluted 4-fold in the 96-well plate to obtain stock solutions with 10 concentration gradients, and added into a 384-well plate system to obtain a series of 10 concentration gradients of compound solutions with final concentrations of 10 μM starting and 4-fold gradient decreasing. 1 μM AZD4573 was used as compound positive control (PC) and 0.5% DMSO as solvent vehicle control (VC), ten duplicated wells each for PC and VC.
(§5) 1 μL of compound solution and 2 μL of 2× kinase solution were transferred to each well, and the plate was centrifuged at 1000 g for 30 s and left at room temperature for 10 min. A mixture of 2× substrate and ATP was prepared in 1× kinase buffer. The reaction was started after adding 2 μL of substrate and ATP into the plate. The plate was centrifuged at 1000 g for 30 s. The assay plate was closed and left at room temperature for 60 min. The reaction system was added with 4 μL of ADP Glo reagent, centrifuged at 1000 rpm for 1 min, and incubated at room temperature for 40 min. The reaction system was added with 8 μL of kinase assay reagent, centrifuged at 1000 rpm for 1 min and incubated at room temperature for 40 min. The […] was read on Biotek.
(§6) The inhibition rate was calculated according to the following formula: […]
(§7) Lumcmpd: compound fluorescence reading; Lumpositive: average value of the fluorescence reading of positive compound control; Lumvehicle: average value of the fluorescence reading of solvent vehicle control.
(§8) IC50 values were fitted using GraphPad 7.0 based on inhibition rates of compounds at different concentrations.

[2] = biological target: CDK1/CycE1 (Homo sapiens, UniProt P06493); assay: ADP-Glo kinase assay on CDK enzymatic activity, CDK1/CycE1
Description: as §1, §3, §4, §5, §6, §7, §8

[3] = biological target: CDK9/CycT1 (Homo sapiens, UniProt P50750); assay: ADP-Glo kinase assay on CDK enzymatic activity, CDK9/CycT1; settings: 10 concentrations from 10 μM, 4-fold, 60 min room temperature
Excerpt: as §1, §2, §3, §4, §5, §6, §7, §8

[4] = ADP-Glo, 10 concentrations from 10 μM, 4-fold, 60 min room temperature, read-out: CDK1/CycE1/nM (IC50)

Sequence of CDK9/CycT1 (P50750 whole entry): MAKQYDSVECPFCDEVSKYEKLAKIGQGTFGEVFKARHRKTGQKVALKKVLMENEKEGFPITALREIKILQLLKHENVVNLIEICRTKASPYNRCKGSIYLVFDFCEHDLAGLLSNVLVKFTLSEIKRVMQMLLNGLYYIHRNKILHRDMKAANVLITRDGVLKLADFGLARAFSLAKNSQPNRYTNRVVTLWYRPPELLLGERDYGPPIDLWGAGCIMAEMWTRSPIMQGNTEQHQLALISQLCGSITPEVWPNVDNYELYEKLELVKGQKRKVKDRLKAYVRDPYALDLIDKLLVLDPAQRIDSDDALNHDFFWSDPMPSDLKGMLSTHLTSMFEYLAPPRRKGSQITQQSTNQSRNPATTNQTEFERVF
Sequence of CDK9/CycT1 (O60563 whole entry partner): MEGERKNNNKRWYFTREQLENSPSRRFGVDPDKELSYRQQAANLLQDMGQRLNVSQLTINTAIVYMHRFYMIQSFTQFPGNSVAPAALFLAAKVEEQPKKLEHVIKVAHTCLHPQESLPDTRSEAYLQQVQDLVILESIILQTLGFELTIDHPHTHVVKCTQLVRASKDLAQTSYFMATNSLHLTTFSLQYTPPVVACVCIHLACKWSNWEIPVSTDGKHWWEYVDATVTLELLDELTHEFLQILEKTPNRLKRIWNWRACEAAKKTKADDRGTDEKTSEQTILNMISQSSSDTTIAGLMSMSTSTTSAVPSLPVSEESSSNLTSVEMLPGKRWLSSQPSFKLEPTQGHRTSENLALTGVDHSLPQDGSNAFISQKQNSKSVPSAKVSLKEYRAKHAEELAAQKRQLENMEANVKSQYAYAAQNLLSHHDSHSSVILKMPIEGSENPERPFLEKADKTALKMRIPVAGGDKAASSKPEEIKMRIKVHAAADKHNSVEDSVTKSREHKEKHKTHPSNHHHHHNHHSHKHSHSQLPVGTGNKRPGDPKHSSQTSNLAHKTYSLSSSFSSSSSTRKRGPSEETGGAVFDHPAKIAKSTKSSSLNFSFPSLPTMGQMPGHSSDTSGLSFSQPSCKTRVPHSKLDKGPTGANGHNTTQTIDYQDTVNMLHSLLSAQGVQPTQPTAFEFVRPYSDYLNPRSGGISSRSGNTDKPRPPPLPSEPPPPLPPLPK
Sequence of CDK1/CycE1 (P06493 whole entry, species assumed): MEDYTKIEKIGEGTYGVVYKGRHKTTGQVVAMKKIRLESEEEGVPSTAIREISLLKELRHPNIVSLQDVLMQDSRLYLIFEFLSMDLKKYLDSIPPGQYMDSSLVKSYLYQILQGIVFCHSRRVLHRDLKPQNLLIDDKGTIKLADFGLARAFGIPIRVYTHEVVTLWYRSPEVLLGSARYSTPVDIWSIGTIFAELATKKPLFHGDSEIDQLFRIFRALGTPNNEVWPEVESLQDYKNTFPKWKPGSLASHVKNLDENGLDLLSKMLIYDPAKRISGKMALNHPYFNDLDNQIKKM
Sequence of CDK1/CycE1 (P24864 whole entry partner, species assumed): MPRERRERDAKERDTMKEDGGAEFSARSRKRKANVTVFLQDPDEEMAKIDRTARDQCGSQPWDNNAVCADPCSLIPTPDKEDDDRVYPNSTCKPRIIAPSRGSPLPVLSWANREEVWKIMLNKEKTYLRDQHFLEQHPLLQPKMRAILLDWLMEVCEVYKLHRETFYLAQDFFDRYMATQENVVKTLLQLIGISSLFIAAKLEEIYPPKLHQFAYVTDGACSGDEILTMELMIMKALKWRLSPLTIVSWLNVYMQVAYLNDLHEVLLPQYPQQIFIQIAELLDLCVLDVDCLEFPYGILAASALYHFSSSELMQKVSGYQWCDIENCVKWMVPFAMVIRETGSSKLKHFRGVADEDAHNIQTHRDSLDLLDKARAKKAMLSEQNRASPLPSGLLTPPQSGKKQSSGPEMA

SMILES	IC50 [1] [nM]	IC50 [2, 4] [nM]	IC50 [3] [nM]	IC50 [2] [nM]
CC(C)Nc1nc(C#N)cc2cnc(N[C@H]3C[C@@H](O)C3)nc12 [Compound 133, 2-(((1s,3s)-3-hydroxycyclobutyl)amino)-8-(isopropylamino)pyrido[3,4-d]pyrimidine-6-carbonitrile]	10	29	2	–
CC(C)Nc1nc(C#N)cc2cnc(N[C@H]3C[C@H](O)C3)nc12 [Compound 134, 2-(((1r,3r)-3-hydroxycyclobutyl)amino)-8-(isopropylamino)pyrido[3,4-d]pyrimidine-6-carbonitrile]	5	11	1	–
CC(C)Nc1nc(C#N)cc2cnc(N[C@H]3CC[C@H](N(C)C)CC3)nc12 [Compound 138, 2-(((1r,4r)-4-(dimethylamino)cyclohexyl)amino)-8-(isopropylamino)pyrido[3,4-d]pyrimidine-6-carbonitrile]	49	166	3	–
CC(C)Nc1nc(C#N)cc2cnc(N[C@H]3CC[C@H](N4CCOCC4)CC3)nc12 [Compound 141, 8-(isopropylamino)-2-(((1r,4r)-4-morpholinocyclohexyl)amino)pyrido[3,4-d]pyrimidine-6-carbonitrile]	23	197	2	–
CC(C)Nc1nc(C(F)F)cc2cnc(Nc3cc(CS(C)(=N)=O)ccn3)cc12 (stereo not drawn) [Compound 163, ((2-((7-(difluoromethyl)-5-(isopropylamino)-2,6-naphthyridin-3-yl)amino)pyridin-4-yl)methyl)(methyl)sulfinylimine]	7	31	2	–
CC(C)Nc1nc(C#N)cc2cnc(N[C@H]3C[C@@H](N)C3)cc12 [Compound 164, 7-(((1s,3s)-3-aminocyclobutyl)amino)-1-(isopropylamino)-2,6-naphthyridine-3-carbonitrile]	135	138	1	–
CC(=O)N[C@H]1C[C@@H](Nc2cc3c(NC(C)C)nc(C#N)cc3cn2)C1 [Compound 167, N-((1s,3s)-3-((7-cyano-5-(isopropylamino)-2,6-naphthyridin-3-yl)amino)cyclobutyl)acetamide]	19	55	2	–
CC(C)Nc1nc(C#N)cc2cnc(Nc3cc(CS(C)(=N)=O)ccn3)cc12 (stereo not drawn) [Compound 170, 1-(isopropylamino)-7-((4-((S-methylsulfonimidoyl)methyl)pyridin-2-yl)amino)-2,6-naphthyridine-3-carbonitrile]	34	144	4	–
CC(C)(C)Nc1nc(C#N)cc2cnc(N[C@H]3C[C@@H](N)C3)cc12 [Compound 172, 7-(((1s,3s)-3-aminocyclobutyl)amino)-1-(tert-butylamino)-2,6-naphthyridine-3-carbonitrile]	287	395	1	–
CCOc1nc(C#N)cc2cnc(N[C@H]3C[C@H](N)C3)cc12 [Compound 191, 7-(((1r,3r)-3-aminocyclobutyl)amino)-1-ethoxy-2,6-naphthyridine-3-carbonitrile]	1110	–	5	1950
CC(C)Nc1nc(C(F)F)cc2cnc(N[C@H]3C[C@H](N)C3)cc12 [Compound 206, N^7-((1r,3r)-3-aminocyclobutyl)-3-(difluoromethyl)-N^1-isopropyl-2,6-naphthyridine-1,7-diamine]	6	25	1	–
CC(C)Oc1nc(C#N)cc2cnc(N[C@H]3C[C@H](N)C3)cc12 [Compound 207, 7-(((1r,3r)-3-aminocyclobutyl)amino)-1-isopropoxy-2,6-naphthyridine-3-carbonitrile]	29	126	1	–
CC(C)Nc1nc(C#N)cc2cnc(N[C@H]3C[C@](C)(N)C3)cc12 [Compound 209, 7-((trans)-3-amino-3-methylcyclobutyl)amino-1-(isopropylamino)-2,6-naphthyridine-3-carbonitrile]	306	170	2	–
CC1(Nc2nc(C#N)cc3cnc(N[C@H]4C[C@](C)(N)C4)cc23)CC1 [Compound 211, 7-((trans)-3-amino-3-methylcyclobutyl)amino-1-((1-methylcyclopropyl)amino)-2,6-naphthyridine-3-carbonitrile]	434	233	3	–
CC(C)(C)Nc1nc(C#N)cc2cnc(N[C@H]3CCCNC3)nc12 [Compound C7, (S)-8-(tert-butylamino)-2-(piperidin-3-ylamino)pyrido[3,4-d]pyrimidine-6-carbonitrile]	144	74	3	–

Now from value to compound, other results behind:

IC50 [1] [nM]	IC50 [2, 4] [nM]	IC50 [3] [nM]	SMILES	IC50 [2] [nM]
10	14	2	CC(C)Nc1nc(C#N)cc2cnc(N[C@H]3C[C@H](O)C3)cc12 [Compound 166, 7-(((1r,3r)-3-hydroxycyclobutyl)amino)-1-(isopropylamino)-2,6-naphthyridine-3-carbonitrile]	–
125	63	1	N#Cc1cc2cnc(N[C@H]3CCCNC3)cc2c(NC2CCCC2)n1 [Compound 168, (S)-1-(cyclopentylamino)-7-(piperidin-3-ylamino)-2,6-naphthyridine-3-carbonitrile]	–
2210	798	5	N#Cc1cc2cnc(N[C@H]3CCCNC3)cc2c(N2CCCC2)n1 [Compound 169, (S)-7-(piperidin-3-ylamino)-1-(pyrrolidin-1-yl)-2,6-naphthyridine-3-carbonitrile]	–
815	638	4	CCN(CC)c1nc(C#N)cc2cnc(N[C@H]3CCCNC3)cc12 [Compound 171, (S)-1-(diethylamino)-7-(piperidin-3-ylamino)-2,6-naphthyridine-3-carbonitrile]	–
436	952	4	N#Cc1cc2cnc(N[C@H]3CC[C@H](N)C3)cc2c(N[C@@H]2CCOC2)n1 [Compound 173, 7-(((1S,3S)-3-aminocyclopentyl)amino)-1-(((R)-tetrahydrofuran-3-yl)amino)-2,6-naphthyridine-3-carbonitrile]	–
510	871	2	N#Cc1cc2cnc(N[C@H]3C[C@@H](N)C3)cc2c(N[C@@H]2CCOC2)n1 [Compound 174, 7-(((1s,3S)-3-aminocyclobutyl)amino)-1-(((R)-tetrahydrofuran-3-yl)amino)-2,6-naphthyridine-3-carbonitrile]	–
144	272	1	N#Cc1cc2cnc(N[C@H]3C[C@H](N)C3)cc2c(N[C@@H]2CCOC2)n1 [Compound 179, 7-(((trans)-3-aminocyclobutyl)amino)-1-(((R)-tetrahydrofuran-3-yl)amino)-2,6-naphthyridine-3-carbonitrile]	–
844	204	7	N#Cc1cc2cnc(N[C@H]3CCCNC3)cc2c(C2=CCCCC2)n1 [Compound 180, (S)-1-(cyclohex-1-en-1-yl)-7-(piperidin-3-ylamino)-2,6-naphthyridine-3-carbonitrile]	–
153	518	7	N#Cc1cc2cnc(N[C@H]3CCCNC3)cc2c(C2=CCCC2)n1 [Compound 181]	–
28	50	1	CC(C)Nc1nc(C#N)cc2cnc(N[C@H]3C[C@H](N)C3)cc12 [Compound 183, 7-(((1r,3r)-3-aminocyclobutyl)amino)-1-(isopropylamino)-2,6-naphthyridine-3-carbonitrile]	–
356	134	3	N#Cc1cc2cnc(N[C@H]3CCCNC3)cc2c(OC2CCCC2)n1 [Compound 185, (S)-1-(cyclopentyloxy)-7-(piperidin-3-ylamino)-2,6-naphthyridine-3-carbonitrile]	–
958	413	8	N#Cc1cc2cnc(N[C@H]3CCCNC3)cc2c(C2CCCC2)n1 [Compound 187, (S)-1-cyclopentyl-7-(piperidin-3-ylamino)-2,6-naphthyridine-3-carbonitrile]	–
330	202	4	CC(C)Nc1nc(C#N)cc2cnc(N[C@H]3CCCCNC3)nc12 [Compound C6, (S)-2-(azepan-3-ylamino)-8-(isopropylamino)pyrido[3,4-d]pyrimidine-6-carbonitrile]	–

Source: patent publication US20250163043A1 (TRANSTHERA SCIENCES (NANJING), INC., priority 2021, published 2025)
